# Reference: PubChem BioAssay (NCI)
#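 Compound exposure: 48 hours, 5 concentrations, 96-well plates. TGI marks complete inhibition of growth.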
# What was measured:
# Assay in all cases: inhibition of tumour cell growth, NCI panel, 48 h
# [1] = system: OVCAR-5 ovarian
# [2] = system: OVCAR-4 ovarian
# [3] = system: ACHN renal
# [4] = system: RXF-631 renal
# [5] = system: A549 NSCLC
# [6] = system: SNB-78 CNS
# [7] = system: MALME-3M melanoma
# [8] = system: HCT-15 colon
# [9] = system: EKVX NSCLC
# [10] = system: SN12C renal
# [11] = system: U251 CNS
# [12] = system: SR leukemia
# [13] = system: MOLT-4 leukemia
# [14] = system: NCI-H460 lung
# [15] = system: SK-MEL-5 melanoma
# [16] = system: NCI-H23 lung
# [17] = system: RXF 393 renal
# [18] = system: HT29 colon
# [19] = system: DLD-1 colon
# [20] = system: 786-0 renal
# [21] = system: SNB-19 CNS
# [22] = system: HOP-92 NSCLC
# [23] = system: COLO 205 colon
# [24] = system: CAKI-1 renal
# [25] = system: KM20L2 colon
# [26] = system: SK-MEL-2 melanoma
# [27] = system: SF-295 CNS
# [28] = system: UACC-257 melanoma
# [29] = system: UO-31 renal
# [30] = system: SF-268 CNS
# [31] = system: M14 melanoma
# [32] = system: HCC-2998 colon
# [33] = system: M19-MEL melanoma
# [34] = system: OVCAR-8 ovarian
# [35] = system: KM12 colon
# [36] = system: SNB-75 CNS
# [37] = system: HCT-116 colon
# [38] = system: CCRF-CEM leukemia
# [39] = system: SK-OV-3 ovarian
# [40] = system: RPMI-8226 leukemia
# [41] = system: IGROV1 ovarian
# [42] = system: XF 498 CNS
# [43] = system: HOP-62 NSCLC
# [44] = system: NCI-H522 lung
# [45] = system: K-562 leukemia
# [46] = system: UACC-62 melanoma
# [47] = system: A498 renal
# [48] = system: SF-539 CNS
# [49] = system: HOP-18 NSCLC
# [50] = system: HL-60(TB) leukemia
# [51] = system: SK-MEL-28 melanoma
# [52] = system: DMS 114 small cell lung
# [53] = system: LXFL 529 NSCLC
# [54] = system: DMS 273 small cell lung
# [55] = system: NCI-H226 lung
# [56] = system: LOX IMVI melanoma
# [57] = system: SW-620 colon
# [58] = system: OVCAR-3 ovarian
# [59] = system: TK-10 renal
compound,measurement,setting,value
Clc1ccc(CCN2CCOCC2)c(Cl)c1,TGI,[1],> 100 µM
same,TGI,[2],> 100 µM
same,TGI,[3],> 100 µM
same,TGI,[4],> 100 µM
same,TGI,[5],> 100 µM
same,TGI,[6],> 100 µM
same,TGI,[7],> 100 µM
same,TGI,[8],> 100 µM
same,TGI,[9],> 100 µM
same,TGI,[10],> 100 µM
same,TGI,[11],> 100 µM
same,TGI,[12],> 100 µM
same,TGI,[13],> 100 µM
same,TGI,[14],> 100 µM
same,TGI,[15],> 100 µM
same,TGI,[16],> 100 µM
same,TGI,[17],> 100 µM
same,TGI,[18],> 100 µM
same,TGI,[19],> 100 µM
same,TGI,[20],> 100 µM
same,TGI,[21],> 100 µM
same,TGI,[22],> 100 µM
same,TGI,[23],> 100 µM
same,TGI,[24],> 100 µM
same,TGI,[25],> 100 µM
same,TGI,[26],> 100 µM
same,TGI,[27],> 100 µM
same,TGI,[28],> 100 µM
same,TGI,[29],> 100 µM
same,TGI,[30],> 100 µM
same,TGI,[31],> 100 µM
same,TGI,[32],> 100 µM
same,TGI,[33],> 100 µM
same,TGI,[34],> 100 µM
same,TGI,[35],> 100 µM
same,TGI,[36],83.3 µM
same,TGI,[37],> 100 µM
same,TGI,[38],> 100 µM
same,TGI,[39],> 100 µM
same,TGI,[40],> 100 µM
same,TGI,[41],> 100 µM
same,TGI,[42],> 100 µM
same,TGI,[43],> 100 µM
same,TGI,[44],> 100 µM
same,TGI,[45],> 100 µM
same,TGI,[46],> 100 µM
same,TGI,[47],> 100 µM
same,TGI,[48],> 100 µM
same,TGI,[49],> 100 µM
same,TGI,[50],> 100 µM
same,TGI,[51],> 100 µM
same,TGI,[52],> 100 µM
C[C@@H]1CC2(N=CCS2)[C@]2(O)O[C@@H]3C[C@@]4(C)[C@H](C[C@H]3O[C@@H]2O1)C[C@H]1O[C@]12[C@@H]4[C@H](O)C(=O)[C@]1(C)C(C3=CC(=O)OC3)CC[C@]21O (some centres undefined),TGI,[3],0.0149 µM
same,TGI,[53],0.0166 µM
same,TGI,[4],0.102 µM
same,TGI,[54],0.0214 µM
same,TGI,[6],0.0495 µM
same,TGI,[7],0.0285 µM
same,TGI,[10],0.0202 µM
same,TGI,[12],0.015 µM
same,TGI,[19],0.0216 µM
same,TGI,[20],0.0179 µM
same,TGI,[22],0.08 µM
same,TGI,[23],0.0828 µM
same,TGI,[24],0.0265 µM
same,TGI,[26],0.0749 µM
same,TGI,[29],0.0755 µM
same,TGI,[55],0.0746 µM
same,TGI,[56],0.0239 µM
same,TGI,[30],0.0146 µM
same,TGI,[31],0.0497 µM
same,TGI,[32],0.0727 µM
same,TGI,[33],0.0784 µM
same,TGI,[36],0.0984 µM
same,TGI,[37],0.0301 µM
same,TGI,[39],0.0778 µM
same,TGI,[40],0.0578 µM
same,TGI,[41],0.159 µM
same,TGI,[42],0.0336 µM
same,TGI,[43],0.0211 µM
same,TGI,[46],0.0511 µM
same,TGI,[47],0.0386 µM
same,TGI,[48],0.0122 µM
same,TGI,[50],0.0353 µM
same,TGI,[51],0.089 µM
N#CCc1nc2c(s1)C(=O)c1ccccc1C2=O,TGI,[1],37.2 µM
same,TGI,[2],31.1 µM
same,TGI,[3],27.4 µM
same,TGI,[53],28.2 µM
same,TGI,[4],42.7 µM
same,TGI,[54],29.9 µM
same,TGI,[6],47.7 µM
same,TGI,[7],34.3 µM
same,TGI,[8],29.9 µM
same,TGI,[9],49.1 µM
same,TGI,[10],33.5 µM
same,TGI,[11],31.1 µM
same,TGI,[13],3.48 µM
same,TGI,[14],47.6 µM
same,TGI,[15],23.7 µM
same,TGI,[16],36.4 µM
same,TGI,[17],49.4 µM
same,TGI,[18],46.5 µM
same,TGI,[20],30.1 µM
same,TGI,[21],40.7 µM
same,TGI,[22],34.4 µM
same,TGI,[23],33.4 µM
same,TGI,[24],38.6 µM
same,TGI,[25],> 100 µM
same,TGI,[26],35.6 µM
same,TGI,[27],34.5 µM
same,TGI,[28],28.5 µM
same,TGI,[29],29.3 µM
same,TGI,[55],37.8 µM
same,TGI,[56],28.1 µM
same,TGI,[30],32.2 µM
same,TGI,[31],28.5 µM
same,TGI,[32],38 µM
same,TGI,[33],11.4 µM
same,TGI,[34],22.6 µM
same,TGI,[35],36 µM
same,TGI,[36],49.3 µM
same,TGI,[57],34.8 µM
same,TGI,[37],27.6 µM
same,TGI,[39],> 100 µM
same,TGI,[40],46.6 µM
same,TGI,[41],17.3 µM
same,TGI,[43],28.3 µM
same,TGI,[44],29.9 µM
same,TGI,[45],39.6 µM
same,TGI,[46],26.5 µM
same,TGI,[47],59.1 µM
same,TGI,[48],28 µM
same,TGI,[49],28.3 µM
same,TGI,[58],29.3 µM
same,TGI,[59],36.5 µM
same,TGI,[51],32.8 µM
same,TGI,[52],20.1 µM
O=C(O)C1C2CC3CC2CC31 (centres undefined),TGI,[1],> 100 µM
same,TGI,[2],> 100 µM
same,TGI,[3],> 100 µM
same,TGI,[53],> 100 µM
same,TGI,[4],> 100 µM
same,TGI,[5],> 100 µM
same,TGI,[54],> 100 µM
same,TGI,[6],> 100 µM
same,TGI,[7],> 100 µM
same,TGI,[8],> 100 µM
same,TGI,[9],> 100 µM
same,TGI,[10],> 100 µM
same,TGI,[11],> 100 µM
same,TGI,[13],> 100 µM
same,TGI,[14],> 100 µM
same,TGI,[15],> 100 µM
same,TGI,[16],> 100 µM
same,TGI,[17],> 100 µM
same,TGI,[20],> 100 µM
same,TGI,[21],> 100 µM
same,TGI,[22],> 100 µM
same,TGI,[23],> 100 µM
same,TGI,[24],> 100 µM
same,TGI,[26],> 100 µM
same,TGI,[27],> 100 µM
same,TGI,[28],> 100 µM
same,TGI,[29],> 100 µM
same,TGI,[56],> 100 µM
same,TGI,[30],> 100 µM
same,TGI,[31],> 100 µM
same,TGI,[34],> 100 µM
same,TGI,[35],> 100 µM
same,TGI,[36],> 100 µM
same,TGI,[57],> 100 µM
same,TGI,[37],> 100 µM
same,TGI,[38],> 100 µM
same,TGI,[39],> 100 µM
same,TGI,[40],> 100 µM
same,TGI,[41],> 100 µM
same,TGI,[42],> 100 µM
same,TGI,[43],> 100 µM
same,TGI,[44],> 100 µM
same,TGI,[45],> 100 µM
same,TGI,[46],> 100 µM
same,TGI,[47],> 100 µM
same,TGI,[48],> 100 µM
same,TGI,[58],> 100 µM
same,TGI,[59],> 100 µM
same,TGI,[50],> 100 µM
same,TGI,[51],> 100 µM
same,TGI,[52],> 100 µM
